In one assay the test system is Wistar rats. Put plainly: Assay (XII) single subcutaneous administration, plasma calcium in rats. The class given is in vivo, rat. The settings on record: for Plasma calcium red (%) 0-12 h: single s.c., maximal reduction 0-12 h, compared to vehicle; for suppression of plasma calcium level relative to vehicle: single subcutaneous, over 24 hours. The method in brief: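 Male Wistar rats (~250 g), groups of five, received a single subcutaneous dose at time 0. Blood drawn at −15 min, 1, 2, 4, 7, 12 and 24 h; total calcium measured in heparin plasma, reported as mean±SEM.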

In another assay the test system is Sprague-Dawley rats. Put plainly: Assay (XI) single subcutaneous administration, food intake monitored for 48 hours in rats. The following applies: single subcutaneous 30 nmol/kg. In kind it is in vivo, rat. As for the experimental part: Assay (XI)—Effect from Single Subcutaneous Administration of Analogue on […] in Rats
Male Sprague-Dawley rats (Taconic Europe, ˜250 g at test date) were acclimatized to reversed day light cycle (lights on from 10 PM to 10 AM) and single housing in online food intake monitoring system (Ellegaard MBRose, Denmark) prior to study start. Rats were divided in groups of five and subcutaneously dosed with test compound (30 nmol/kg) and food intake was monitored for 48 hours hereafter. Data are illustrated in graphs as mean±SEM.

The target of another assay is T1, human amylin receptor (Homo sapiens, UniProt O60896+P30988).
T1 construct: expressed in transfected cells
T1 sequence (P30988 25-474): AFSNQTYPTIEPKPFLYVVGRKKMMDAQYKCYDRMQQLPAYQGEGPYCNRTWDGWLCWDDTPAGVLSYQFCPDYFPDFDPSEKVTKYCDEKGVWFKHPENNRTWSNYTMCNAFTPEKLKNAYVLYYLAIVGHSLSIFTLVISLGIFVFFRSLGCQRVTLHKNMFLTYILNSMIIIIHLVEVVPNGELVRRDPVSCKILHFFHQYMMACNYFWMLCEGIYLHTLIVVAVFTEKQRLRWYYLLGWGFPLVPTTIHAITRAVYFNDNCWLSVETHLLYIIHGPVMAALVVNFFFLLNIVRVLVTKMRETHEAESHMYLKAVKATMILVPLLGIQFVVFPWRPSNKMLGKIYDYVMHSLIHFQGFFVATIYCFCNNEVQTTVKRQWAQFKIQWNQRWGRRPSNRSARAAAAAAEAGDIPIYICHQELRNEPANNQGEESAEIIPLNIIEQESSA
T1 sequence (O60896 24-148 partner): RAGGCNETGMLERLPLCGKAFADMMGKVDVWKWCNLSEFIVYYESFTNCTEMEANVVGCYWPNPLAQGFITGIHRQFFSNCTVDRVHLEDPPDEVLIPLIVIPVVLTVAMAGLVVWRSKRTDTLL
Put plainly: Assay (V) binding to the human amylin receptor (SPA, 125I-rat amylin). The following applies: human amylin receptor membranes, SPA; read-out: hAmylin-R bind IC50. The method in brief:
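IC50, taken as receptor affinity, came from one-site binding competition analysis of scintillation proximity counts. Amylin 3(a)/CRE-luc cell membranes (35 ng/μL final) were mixed with SPA beads (0.05 mg/well) in 50 mM Hepes pH 7.4 containing CaCl2, MgCl2, 0.1% OA and 0.02% Tween20.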

Assay [1] has as its target T2, human amylin receptor (amylin 3(a) receptor: human calcitonin receptor + RAMP-3) (Homo sapiens, UniProt O60896+P30988).
T2 construct: expressed in transfected cells
T2 sequence (P30988 25-474): T1 sequence (P30988 25-474)
T2 sequence (O60896 24-148 partner): T1 sequence (O60896 24-148 partner)
Put plainly: Assay (II)a functional assay, human amylin receptor (CRE luciferase, BHK cells). In kind it is cell-based. The settings on record: for EC50: functional assay, human amylin receptor, read-out: hAmylin-R funct. EC50.

Assay [2] concerns the target T3, human calcitonin receptor (Homo sapiens, UniProt P30988).
T3 construct: expressed in transfected cells
T3 sequence (P30988 25-474): T1 sequence (P30988 25-474)
Put plainly: Assay (II)a functional assay, human calcitonin receptor (CRE luciferase, BHK cells).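 Also: luminescence from a CRE-driven luciferase reporter, read by single photon counting after cells were exposed to test samples for 3 h at 37 °C under 5% CO2.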 The class given is cell-based. The settings on record: read-out: hCTR funct. EC50.

Assay [3] has as its target T3, human calcitonin receptor. Put plainly: Assay (VII) binding to the human calcitonin receptor (SPA, 125I-Calcitonin).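 Also: cell membranes coupled to SPA beads, competitive displacement read by scintillation counting, IC50 derived from a one-site competition fit as a measure of receptor affinity.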 The following applies: read-out: hCTR bind IC50.
Setting [4] is: Table 6, human functional selectivity (hCTR EC50 / hAmylin-R EC50).
[5] abbreviates: Table 6a, human functional selectivity (hCTR EC50 / hAmylin-R EC50), at least 5.
[6] abbreviates: Table 6i, hCTR funct. EC50 / hAmylin-R funct. EC50.
[7] abbreviates: Table 6j, hCTR funct. EC50 / hAmylin-R funct. EC50.
The mark [8] stands for this setting: Table 6k, hCTR funct. EC50 / hAmylin-R funct. EC50.

Numbered stars: 1 amine (or outer) side, 2 acyl side, 3 side chain; on linkers, the order of the positions; unused ones are H or OH. Bridge positions count the residues as written; N and C are the ends. Side chains are listed from the residue outwards. Peptide text beside a SMILES is read from it. * marks the point of attachment. C20 diacid = O=C(O)CCCCCCCCCCCCCCCCCCC(=O)*; γGlu = O=C(O)[C@H](CCC(=O)[*:2])N[*:1]

As for `CC[C@H](C)[C@H](NC(=O)[C@H](C)NC(=O)CNC(=O)[C@H](Cc1ccccc1)NC(=O)[C@H](CC(N)=O)NC(=O)[C@@H]1CCCN1C(=O)[C@H](CO)NC(=O)[C@H](CO)NC(=O)[C@H](Cc1c[nH]cn1)NC(=O)[C@H](CCCNC(=N)N)NC(=O)[C@H](CC(C)C)NC(=O)[C@H](Cc1ccccc1)NC(=O)[C@H](CC(=O)O)NC(=O)[C@H](C)NC(=O)[C@H](CC(C)C)NC(=O)[C@H](CCCNC(=N)N)NC(=O)[C@H](CCC(N)=O)NC(=O)[C@@H](NC(=O)[C@H](C)NC(=O)[C@@H]1CSSC[C@H](NC(=O)[C@@H](N)CCCCNC(=O)CC[C@H](NC(=O)CC[C@H](NC(=O)CCCCCCCCCCCCCCCCCCC(=O)O)C(=O)O)C(=O)O)C(=O)N[C@@H](CC(N)=O)C(=O)N[C@@H]([C@@H](C)O)C(=O)N[C@@H](C)C(=O)N[C@@H]([C@@H](C)O)C(=O)N1)[C@@H](C)O)C(=O)N1CCC[C@H]1C(=O)N[C@@H](CO)C(=O)N[C@@H](CO)C(=O)N[C@H](C(=O)N[C@@H](CC(N)=O)C(=O)N[C@H](C(=O)NCC(=O)N[C@@H](CO)C(=O)N[C@@H](CCCNC(=N)N)C(=O)N[C@H](C(=O)N[C@@H](Cc1ccc(O)cc1)C(N)=O)[C@@H](C)O)C(C)C)[C@@H](C)O` [Example 52, N-ε-1-{(S)-4-carboxy-4-[(S)-4-carboxy-4-(19-carboxynonadecanoylamino)butyrylamino]butyryl}-[Asp14,Arg17,Pro21,Pro27,Arg35]-human amylin], in the assay on Wistar rats (30 nmol/kg), the “Plasma calcium red (%) 0-12 h” value is listed as 12%. The “suppression of plasma calcium level relative to vehicle” value in the assay on Wistar rats (increasing doses (all doses tested)) is reported as “None of the doses trigger a notable suppression of the calcium level”. In the assay on Sprague-Dawley rats, the “food intake monitored over 48 hours versus vehicle” value is given as “reduces food intake in rats”. The 50% inhibitory concentration (IC50) was 0.697 nM on human amylin receptor and 56.9 nM in assay [3]. The figures for the EC50 in assay [1] and in assay [2] were 0.34 nM and 14.1 nM, respectively.
Take `CC[C@H](C)[C@H](NC(=O)[C@H](C)NC(=O)CNC(=O)[C@H](Cc1ccccc1)NC(=O)[C@H](CC(N)=O)NC(=O)[C@@H]1CCCN1C(=O)[C@H](CO)NC(=O)[C@H](CO)NC(=O)[C@H](Cc1c[nH]cn1)NC(=O)[C@H](CCCNC(=N)N)NC(=O)[C@H](CC(C)C)NC(=O)[C@H](Cc1ccccc1)NC(=O)[C@H](CCC(=O)O)NC(=O)[C@H](C)NC(=O)[C@H](CC(C)C)NC(=O)[C@H](CCCNC(=N)N)NC(=O)[C@H](CCC(N)=O)NC(=O)[C@@H](NC(=O)[C@H](C)NC(=O)[C@@H]1CSSC[C@H](NC(=O)[C@@H](N)CCCCNC(=O)CC[C@H](NC(=O)CCCCCCCCCCCCCCCCCCC(=O)O)C(=O)O)C(=O)N[C@@H](CC(N)=O)C(=O)N[C@@H]([C@@H](C)O)C(=O)N[C@@H](C)C(=O)N[C@@H]([C@@H](C)O)C(=O)N1)[C@@H](C)O)C(=O)N1CCC[C@H]1C(=O)N[C@@H](CO)C(=O)N[C@@H](CO)C(=O)N[C@H](C(=O)N[C@@H](CC(N)=O)C(=O)N[C@H](C(=O)NCC(=O)N1CCC[C@H]1C(=O)N[C@@H](CCC(=O)O)C(=O)N[C@H](C(=O)N[C@@H](Cc1ccc(O)cc1)C(N)=O)[C@@H](C)O)C(C)C)[C@@H](C)O` [Example 109] (H-K([γGlu-C20 diacid])CNTATCATQRLAEFLRHSSPNFGAIPSSTNVGPETY-NH2; disulfide 2-7): the “Plasma calcium red (%) 0-12 h” value in the assay on Wistar rats (3 nmol/kg) is reported as 7%; in the assay on Wistar rats (30 nmol/kg), 27%. Moreover, the “suppression of plasma calcium level relative to vehicle” value was “does not trigger a notable suppression of the calcium level” with Wistar rats (3 nmol/kg); “minor suppression of the calcium level” in the assay on Wistar rats (30 nmol/kg); “more pronounced suppression of the calcium level” in the assay on Wistar rats (100 and 300 nmol/kg). Moreover, the “food intake monitored over 48 hours versus vehicle” value in the assay with Sprague-Dawley rats was “reduces food intake in rats”. The IC50 on human amylin receptor stood at 0.14 nM; in assay [3], 1.86 nM. The “Ratio hCT/hAmylin funct.” value in assay [1] (setting [4]), in assay [1] (setting [5]), in assay [1] (setting [6]), in assay [1] (setting [7]) and in assay [1] (setting [8]) was 5.2 throughout. Further, the concentration for a half-maximal effect (EC50) in assay [1] worked out at 0.161 nM; in assay [2], 0.841 nM.
On to `CC[C@H](C)[C@H](NC(=O)[C@H](C)NC(=O)CNC(=O)[C@H](Cc1ccccc1)NC(=O)[C@H](CC(N)=O)NC(=O)[C@@H]1CCCN1C(=O)[C@H](CO)NC(=O)[C@H](CO)NC(=O)[C@H](Cc1c[nH]cn1)NC(=O)[C@H](CCCNC(=N)N)NC(=O)[C@H](CC(C)C)NC(=O)[C@H](Cc1ccccc1)NC(=O)[C@H](CCC(=O)O)NC(=O)[C@H](C)NC(=O)[C@H](CC(C)C)NC(=O)[C@H](CCCNC(=N)N)NC(=O)[C@H](CCC(N)=O)NC(=O)[C@@H](NC(=O)[C@H](C)NC(=O)[C@@H]1CSSC[C@H](NC(=O)[C@@H](N)CCCCNC(=O)CC[C@H](NC(=O)CCCCCCCCCCCCCCCCCCC(=O)O)C(=O)O)C(=O)N[C@@H](CC(N)=O)C(=O)N[C@@H]([C@@H](C)O)C(=O)N[C@@H](C)C(=O)N[C@@H]([C@@H](C)O)C(=O)N1)[C@@H](C)O)C(=O)N1CCC[C@H]1C(=O)N[C@@H](CO)C(=O)N[C@@H](CO)C(=O)N[C@H](C(=O)N[C@@H](CC(N)=O)C(=O)N[C@H](C(=O)NCC(=O)N1CCC[C@H]1C(=O)N[C@@H](CCCNC(=N)N)C(=O)N[C@H](C(=O)N[C@@H](Cc1ccc(O)cc1)C(N)=O)[C@@H](C)O)C(C)C)[C@@H](C)O` [Example 117] (H-K([γGlu-C20 diacid])CNTATCATQRLAEFLRHSSPNFGAIPSSTNVGPRTY-NH2; disulfide 2-7), for which the “Plasma calcium red (%) 0-12 h” value in the assay on Wistar rats (30 nmol/kg) amounted to 9%. Moreover, in the assay on Wistar rats (30 nmol/kg), the “suppression of plasma calcium level relative to vehicle” value is “None of the example compounds at 30 nmol/kg trigger a notable suppression of the calcium level”. In addition, in the assay on Sprague-Dawley rats, the “food intake monitored over 48 hours versus vehicle” value was “reduces food intake in rats”. Also, the half-inhibitory concentration (IC50) came to 0.163 nM at human amylin receptor and 6.3 nM in assay [3]. Also, the “Ratio hCT/hAmylin funct.” value in assay [1] (setting [4]), in assay [1] (setting [5]), in assay [1] (setting [6]), in assay [1] (setting [7]) and in assay [1] (setting [8]) was 17.0 throughout. Further, the EC50 in assay [1] worked out at 0.376 nM; in assay [2] it was 6.38 nM.
